The source of these data is article PMC13075795, “A dual-threshold system relying on multiple c-di-GMP metabolic enzymes controls cell fate of a cyanobacterium” (PLOS Biology, 2026).

For one data set, the target named is T1, CdgS (Nostoc sp. PCC 7120 = FACHB-418, UniProt A0ACD7RTW6).
T1 construct: gene all2874; full-length; pHTwinStrep vector, C-terminal twin Strep-tag kept; expressed in E. coli BL21(DE3); Strep-Tactin and SEC
T1 sequence (A0ACD7RTW6 1-330): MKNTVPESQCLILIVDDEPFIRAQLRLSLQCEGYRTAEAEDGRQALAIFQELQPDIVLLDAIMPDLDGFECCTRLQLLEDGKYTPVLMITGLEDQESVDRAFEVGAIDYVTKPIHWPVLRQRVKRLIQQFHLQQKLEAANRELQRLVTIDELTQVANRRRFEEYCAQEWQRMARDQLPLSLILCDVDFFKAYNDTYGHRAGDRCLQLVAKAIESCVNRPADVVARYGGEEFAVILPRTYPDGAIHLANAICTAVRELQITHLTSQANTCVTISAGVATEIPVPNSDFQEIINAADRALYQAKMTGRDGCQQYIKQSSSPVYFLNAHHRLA
Briefly: HPLC diguanylate cyclase inhibition assay (GTP consumption). The format is biochemical.

Data set [1] has as its target T2, Alr1219-ΔCT (All1219-ΔCT) (Nostoc sp. PCC 7120 = FACHB-418, UniProt A0ACD7RQN0).
T2 construct: C-terminal twin Strep-tag kept; expressed in E. coli BL21(DE3)
The description is as above. The format is biochemical.

Another data set concerns the target T3, Alr3599 (Nostoc sp. PCC 7120 = FACHB-418, UniProt A0ACD7RVV5).
T3 construct: full-length; pHTwinStrep vector, C-terminal twin Strep-tag kept; expressed in E. coli BL21(DE3); Strep-Tactin and SEC
The description is as above. It counts as biochemical.

Substrate in data set [2]: Nc1nc2c(ncn2[C@@H]2O[C@H](COP(=O)(O)OP(=O)(O)OP(=O)(O)O)[C@@H](O)[C@H]2O)c(=O)[nH]1
Nature of the data set: HPLC diguanylate cyclase assay, Michaelis-Menten fit. It counts as biochemical, Nostoc sp. PCC 7120 = FACHB-418. The following applies: 3.13-200 μM GTP, 1 μM protein, 10 min, 25 °C, 50 mM Tris-HCl pH 8.0, 0.2 M NaCl, 10 mM MgCl2.

In general, Ki refers to a measure of affinity in units of concentration, obtained from inhibition or displacement. Higher therefore signals weaker binding. With `Nc1nc2c(ncn2[C@@H]2O[C@@H]3CO[P@](=O)(O)O[C@H]4[C@@H](O)[C@H](n5cnc6c(=O)[nH]c(N)nc65)O[C@@H]4CO[P@](=O)(O)O[C@H]3[C@H]2O)c(=O)[nH]1` [c-di-GMP], the inhibitory constant (Ki) at CdgS is 2.42 µM; in data set [1], 3.7 µM; at Alr3599, 16 µM.

B1: Alr1219-ΔCT (All1219-ΔCT) (Nostoc sp. PCC 7120 = FACHB-418) (protein)
chain: HMQEELKRSKEFLQQVIDTIADPIFVKNEQHQWIVLNKAYCRFIGYPESFLVEKSDVDFFPKHEADVFRQQDELVFETQRPQENEEEFTDAYGKTHLIATKRSLHKDAAGNFFLVGVIRDITQRKIMEEELKRTAAELFRSNNELKLKEDHLRYLAYHDALTGLPNRKYFAEQLYESINWAKDNNLSLGLLFIDLDGFKQVNDSLGHEMGDRLLVVIAQRLSNSLRASDTVARLGGDEFTVILQAIPNVQVAAKVAEKILANITEPIVLNGCTAKVSVSIGISIYPETSLDPDTLLKKADAAMYRAKHLGKNRFELADRVNTEF
notes: C-terminal twin Strep-tag kept; expressed in E. coli BL21(DE3)
In general, Km refers to the concentration of substrate that gives half-maximal velocity. With B1, the Km in data set [2] was determined as 20.3 ± 12.4 µM.

B2: Alr3599 (Nostoc sp. PCC 7120 = FACHB-418) (protein)
chain: MSGISPYSLSKKPPVILVADDDKTIRMLLREAMEKEGYRVVEVTDGKQCLDAYEAVKPDIVLLDAMMPVMDGFTCCKQLLQIARNNLITALANLDTDSGLGNTVISRLWERTPILMITSLNDAESVDRAFEAGATDYITKPIHWAVLRQRLRRLLQQAQVYKQLEAANMALQHLANVDGLTGLANRRRFDNYLNTQWINLVQEGAPLSLILCDIDYFKFYNDQYGHPTGDICLQKVGAVLSYKAQKHQDLVARYGGEEFAVVMPYTHAKGAIYVAHAIQTSVRDLQIAHDKSAVSQHITLSMGVATITPTWESSPSDLIAAADKALYKAKESGRNRICQWEDSQ
notes: full-length; pHTwinStrep vector, C-terminal twin Strep-tag kept; expressed in E. coli BL21(DE3); Strep-Tactin and SEC
Take B2: in data set [2], the Michaelis constant (Km) was determined as 84.2 ± 30.1 µM.

B3: CdgS (Nostoc sp. PCC 7120 = FACHB-418) (protein)
chain: T1 sequence (A0ACD7RTW6 1-330)
notes: as for B2
For the molecule B3, the Michaelis-Menten constant (Km) in data set [2] stood at 26.6 ± 3.5 µM.
